From article PMC9965221, “Antiviral Mechanism of Virucidal Sialic Acid Modified Cyclodextrin” (Pharmaceutics, 2023)

Target: T1, recombinant HA (A/California/04/2009, Met1-Gln549) (Influenza A virus (A/California/04/2009(H1N1)), UniProt C3W5S1)
T1 construct: Met1-Gln549, His-tagged recombinant, immobilised on anti-His probes
Assay type: binding

T1 sequence (C3W5S1 entry or part of it, added parts left off): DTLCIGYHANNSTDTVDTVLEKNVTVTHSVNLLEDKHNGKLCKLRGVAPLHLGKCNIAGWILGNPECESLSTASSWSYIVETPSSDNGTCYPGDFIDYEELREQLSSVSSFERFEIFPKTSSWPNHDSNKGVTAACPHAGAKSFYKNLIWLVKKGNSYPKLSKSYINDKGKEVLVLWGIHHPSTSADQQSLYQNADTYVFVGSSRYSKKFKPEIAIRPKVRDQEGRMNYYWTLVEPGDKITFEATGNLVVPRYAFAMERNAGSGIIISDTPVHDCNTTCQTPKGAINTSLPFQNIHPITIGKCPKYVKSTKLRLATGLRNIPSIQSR

CC(=O)N[C@H]1[C@H]([C@H](O)[C@H](O)CO)O[C@@](OC[C@H]2O[C@@H](O[C@H]3[C@H](O)[C@@H](NC(C)=O)C(O)O[C@@H]3CO)[C@H](O)[C@@H](O)[C@H]2O)(C(=O)O)C[C@@H]1O (stereo partly shown) [6′SLN]
Kd: > 5 mM
